The numbers were not newly measured in patent US20090215102A1, “Method to Assess Breast Cancer Risk” (priority 2005, published 2009), which cites them from elsewhere.

The conditions of series [1]: in vivo.
For another series, the system named is estrogen receptors. Particulars: preclinical data.
Series [2] has as its system rat mammary carcinoma induced by dimethylbenzanthracene (DMBA).

Each structure is given as a SMILES string. Structures can show the parent of a compound that is named as a salt. Where two headings read alike, the source gives them in different places.

`CC/C(=C(\c1ccccc1)c1ccc(OCCNC)cc1)c1ccccc1` [N-desmethyl tamoxifen]: the “half-life of metabolite suggested by time to steady state” value in series [1] is about 14 days.

Regarding `O=C(c1ccc(OCCN2CCCCC2)cc1)c1c(-c2ccc(O)cc2)sc2cc(O)ccc12` [Raloxifene], the “clearance following chronic dosing” value was 40 to 60 L/kg per hour. Besides, in the series with estrogen receptors, the “action in uterine and breast tissues” value is listed as “estrogen antagonist”.

On to `CC/C(=C(\c1ccccc1)c1ccc(OCCN(C)C)cc1)c1ccccc1` [Tamoxifen citrate], for which the “antiestrogenic properties in animal test systems” value in series [2] (animal test systems) is “potent antieskogenic properties”.

For `CC/C(=C(\c1ccccc1)c1ccc(OCCN(C)C)cc1)c1ccccc1` [Tamoxifen], the “induction of rat mammary carcinoma induced by DMBA” value in series [2] (rat) is “inhibits the induction”. For the same molecule, in the series with breast cancer (particularly women aged 50 or older), the associated toxicity entry is “increased risk of endometrial cancer, stroke, pulmonary emboli, and deep vein thrombosis”. In addition, the “breast cancer risk reduction” value in the series with breast cancer (women with a history of LCIS) is 56%; in the series with breast cancer (women with a history of atypical ductal hyperplasia), 86%.
